This is an account of results in patent publication US6620587B1, “Ribosome complexes as selection particles for in vitro display and evolution of proteins” (Discerna Limited, priority 1997, dated 2003).

The target in the experiment is DB3 VH/K expressed as an ARM. The experiment in a line: Inhibition by free steroids of DB3 VH/K ARM binding to progesterone-coated beads. On the set-up: species or system mouse. Particulars: free steroid added to DB3 ARM mixture. As to the method: FIG. 6. […] This supports the correct folding of the antibody fragment on the ribosome.
The free steroid inibitors were added to the DB3 ARM mixture in order to block binding to the progesterone-coated beads. They are progesterone-11α-hemisuccinate (HMS) (P11), progesterone-3-carboxymethyloxime (P3); progesterone-6-HMS (P6) and progesterone-21-HMS (P21). The inhibition of free DB3 VH/K in an ELISA reaction is shown on the right, with the efficiency of the steroids in the order P11>P3>P6>P21.

Regarding `CC(=O)[C@H]1CC[C@H]2[C@@H]3CCC4=CC(=O)CC[C@]4(C)[C@H]3[C@H](OC(=O)CCC(=O)O)C[C@]12C` [progesterone-11α-HMS, progesterone-11α-hemisuccinate], the “50% inhibition of DB3 VH/K ARM binding” value came to 1 ng. Further, for the setting “read-out: 50% inhibition of DB3 VH/K ARM binding”, the IC50 worked out at 2.5 nM.
